# In PMC6002741 (British Journal of Pharmacology, 2018):
# Tests used:
# Type in all cases: cell-based
# TRPM4 [1] = target: T1, TRPM4 (Homo sapiens, UniProt Q8TD43)
# TRPM4 [2] = target: T1, TRPM4; test: Na+ influx screening assay
# TRPM5 = target: T2, TRPM5 (Homo sapiens, UniProt Q9NZQ8); test: Excised membrane voltage clamp recordings on HEK293 cells expressing TRPM5; settings: excised patches, 50 μM free Ca2+, +100 mV
# T2 sequence (Q9NZQ8 1-1165): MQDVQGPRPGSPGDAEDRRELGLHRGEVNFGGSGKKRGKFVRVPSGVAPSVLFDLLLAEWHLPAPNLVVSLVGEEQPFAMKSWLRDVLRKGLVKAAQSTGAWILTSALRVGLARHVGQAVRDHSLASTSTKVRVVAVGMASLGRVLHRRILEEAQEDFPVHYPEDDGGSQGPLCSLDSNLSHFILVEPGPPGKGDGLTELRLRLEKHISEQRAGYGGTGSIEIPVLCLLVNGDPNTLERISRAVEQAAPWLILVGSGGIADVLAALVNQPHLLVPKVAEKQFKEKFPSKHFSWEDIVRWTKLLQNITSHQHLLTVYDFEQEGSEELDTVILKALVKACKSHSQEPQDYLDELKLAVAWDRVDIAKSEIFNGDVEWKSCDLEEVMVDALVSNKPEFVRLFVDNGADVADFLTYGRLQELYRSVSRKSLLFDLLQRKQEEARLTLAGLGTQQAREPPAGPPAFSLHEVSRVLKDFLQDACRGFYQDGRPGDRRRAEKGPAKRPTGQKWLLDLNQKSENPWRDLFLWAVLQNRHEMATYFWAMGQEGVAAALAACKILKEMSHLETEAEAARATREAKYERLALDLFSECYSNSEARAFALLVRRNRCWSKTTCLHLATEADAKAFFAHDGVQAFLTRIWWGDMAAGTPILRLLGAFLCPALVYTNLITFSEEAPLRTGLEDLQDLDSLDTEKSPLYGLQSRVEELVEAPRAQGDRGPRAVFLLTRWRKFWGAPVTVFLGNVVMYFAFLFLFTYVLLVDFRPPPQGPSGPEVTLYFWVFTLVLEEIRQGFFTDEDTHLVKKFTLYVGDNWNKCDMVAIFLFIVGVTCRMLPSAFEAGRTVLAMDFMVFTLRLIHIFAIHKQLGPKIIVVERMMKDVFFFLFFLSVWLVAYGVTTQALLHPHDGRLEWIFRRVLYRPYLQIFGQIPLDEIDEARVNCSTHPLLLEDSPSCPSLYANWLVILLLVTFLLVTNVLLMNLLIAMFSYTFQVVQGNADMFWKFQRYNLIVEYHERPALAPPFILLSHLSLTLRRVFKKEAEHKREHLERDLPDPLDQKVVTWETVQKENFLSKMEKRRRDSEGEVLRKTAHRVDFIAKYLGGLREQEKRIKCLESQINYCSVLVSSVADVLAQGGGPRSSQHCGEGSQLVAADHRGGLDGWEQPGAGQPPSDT
# TRPM4 A432T = TRPM4 A432T (Homo sapiens, UniProt Q8TD43, A432T); test: Western blot of total and surface expression of TRPM4 A432T variant; settings: 50 μM overnight, HEK293
# Sequence of TRPM4 A432T (Q8TD43 whole entry A432T): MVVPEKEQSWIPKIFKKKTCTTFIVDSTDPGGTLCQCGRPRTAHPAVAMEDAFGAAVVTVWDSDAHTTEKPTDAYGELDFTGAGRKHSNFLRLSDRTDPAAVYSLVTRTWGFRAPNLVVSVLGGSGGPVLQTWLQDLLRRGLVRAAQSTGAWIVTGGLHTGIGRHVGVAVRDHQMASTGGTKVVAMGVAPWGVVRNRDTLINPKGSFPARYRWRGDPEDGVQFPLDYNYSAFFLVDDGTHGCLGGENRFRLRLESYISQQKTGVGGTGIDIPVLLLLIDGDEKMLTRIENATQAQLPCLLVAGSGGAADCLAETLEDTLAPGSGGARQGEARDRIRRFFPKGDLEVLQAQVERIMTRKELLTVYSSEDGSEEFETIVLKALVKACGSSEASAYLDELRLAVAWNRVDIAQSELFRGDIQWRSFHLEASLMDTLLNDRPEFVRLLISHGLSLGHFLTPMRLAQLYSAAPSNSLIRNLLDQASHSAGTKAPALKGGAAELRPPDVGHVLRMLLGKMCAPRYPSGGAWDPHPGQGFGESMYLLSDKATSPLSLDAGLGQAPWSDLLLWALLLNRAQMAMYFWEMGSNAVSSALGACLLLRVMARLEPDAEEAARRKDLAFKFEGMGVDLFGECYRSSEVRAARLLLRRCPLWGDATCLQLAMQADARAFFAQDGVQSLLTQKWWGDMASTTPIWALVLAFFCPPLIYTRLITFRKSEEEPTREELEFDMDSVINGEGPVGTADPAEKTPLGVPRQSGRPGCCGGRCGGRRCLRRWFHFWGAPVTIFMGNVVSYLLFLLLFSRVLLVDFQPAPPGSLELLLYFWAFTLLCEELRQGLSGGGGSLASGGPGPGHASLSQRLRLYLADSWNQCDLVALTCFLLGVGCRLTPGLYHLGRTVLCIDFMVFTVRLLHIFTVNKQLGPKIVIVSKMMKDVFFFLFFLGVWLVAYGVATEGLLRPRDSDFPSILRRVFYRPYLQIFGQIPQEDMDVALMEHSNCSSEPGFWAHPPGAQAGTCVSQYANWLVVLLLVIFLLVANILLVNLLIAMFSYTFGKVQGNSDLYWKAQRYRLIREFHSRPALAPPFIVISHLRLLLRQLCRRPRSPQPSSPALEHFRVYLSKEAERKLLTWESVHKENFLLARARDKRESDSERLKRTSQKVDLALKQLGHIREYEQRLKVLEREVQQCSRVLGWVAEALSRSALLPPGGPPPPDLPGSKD
# T1 sequence (Q8TD43 whole entry): as the sequence (Q8TD43 whole entry A432T) above, with T432A counted along it
smiles,measurement,setting,value
"O=C(O)c1ccccc1Nc1cccc(C(F)(F)F)c1 [FFA, flufenamic acid, reference compound]",IC50,TRPM4 [1],9.2 ± 1.2 µM
Cc1cc(Cl)ccc1OC(C)C(=O)Nc1cc(Cl)ccc1C(=O)O (stereo not shown) [Compound 4],"inhibitory activity on TRPM4-mediated Na+ influx, hit confirmation","TRPM4 [2]; 5 μM, repurchased solid samples",confirmed their inhibitory activity
same,IC50,TRPM4 [1],1 ± 0.2 µM
same,inhibition of TRPM4 current on application to the cytosolic side,"TRPM4 [1]; 1 μM on cytosolic side of excised patches, washout",reversible inhibition
same,effect on TRPM5 current,TRPM5,variable potentiating effect
O=C(COc1ccccc1Cl)Nc1cc(Br)ccc1C(=O)O [Compound 11],IC50,TRPM4 [1],1.6 ± 0.5 µM
"Oc1cc2ccccc2c2ccccc12 [9-phenanthrol, reference compound]",IC50,TRPM4 [1],17 ± 2.8 µM
Cc1cc(Cl)ccc1OCC(=O)Nc1cc(Cl)ccc1C(=O)O [Compound 51],TRPM4 inhibitory activity in words (SAR),"TRPM4 [2]; Na+ influx, Supporting Information Table S3 / text",no inhibitory activity
same,rescue of A432T total and surface expression,TRPM4 A432T,did not restore the expression
"O=P(c1ccccc1)(c1ccccc1)c1ccccc1 [TPPO, triphenylphosphine oxide, reference compound]",effect on TRPM5 current (positive control),TRPM5; 20 μM,inhibited TRPM5 current
